These results are taken from paper PMC12663137 (Nature Communications, 2025).

“And” between values parts separate entries of the source, which are not always exact repeats. Equal entries are not always repeated. A value given as a limit tells only on which side of the number the result lay.

One assay has as its target T1, SV2AWT (Homo sapiens, UniProt Q7L0J3).
T1 construct: expressed in transfected cells; host or cells: HEK293 (ATCC CRL-1573), crude membranes
Kind of assay: Competitive displacement of 10 nM 3H-UCB-J, SV2AWT membranes (Fig. 1A). The class given is binding. To be noted: SV2A_WT. On the procedure:
(§1) Ligand binding studies were carried out using crude membranes prepared from HEK293 cells (ATCC, CRL-1573) overexpressing mVenus-SV2AWT or SV2AEM. Membranes were prepared either from transiently transfected cells or from baculovirus-infected cells as described previously. Cells were washed with DPBS (Ca^2+ and Mg^2+ free), followed by resuspending in cold SH buffer (10 mM HEPES-Tris pH 7.4, 320 mM sucrose) containing protease inhibitor cocktail (MedChemExpress) to a density of 10^7 cells/ml. This cell suspension was homogenized by passing through a bead homogenizer (Isobiotec) with 10-micron clearance bead on ice. The lysate was then centrifuged at 4000 × g for 5 min at 4 °C, and the supernatant was aliquoted, frozen in liquid nitrogen, and stored at −80 °C. The mVenus fluorescence estimated using fluorescence size-exclusion chromatography (FSEC) was used to normalize expression levels of mVenus-SV2A mutants studied as detailed previously. For all binding studies, membranes containing […] protein (estimated by BCA method) per reaction were used.
(§2) To obtain dose-response curves of studied SV2A ligands, membranes diluted in 0.2 ml binding buffer (50 mM Tris-Cl, pH 7.4, and 2 mM MgCl2) were incubated with indicated concentrations of ligands for 30 min at 4 °C. […] The binding reaction was arrested by trapping membranes on Unifilter-GF/C 96-well filter plates (Revvity) pre-soaked with 0.1%(w/v) polyethyleneimine (PEI). Membranes were then washed four times with 0.2 ml of cold binding buffer, dried, and 40 µl of scintillation liquid was added to each well. Radioactivity was monitored in MicroBeta2 plate counter (Revvity). Estimates for IC50 were obtained from fitting the data to three-parameter dose-response curves using GraphPad Prism 10.

A further assay concerns the target T2, SV2AEM (Homo sapiens, UniProt Q7L0J3).
T2 construct: expressed in transfected cells; host or cells: HEK293 (ATCC CRL-1573), crude membranes (transient transfection or baculovirus)
The assay can be described thus: Competitive displacement of 10 nM 3H-UCB-J, SV2AEM membranes (Fig. 1A). Type of assay: binding. The conditions noted are these: for Binding of 3H-UCB-J (%): SV2A_EM; for binding response of SV2AEM vs wild-type SV2A: competition with 3H-UCB-J. As for the experimental part: as §1, §2

Assay [1] relates to SV2A WT and L655Q. Further details: method as in PMID: 31619465. To be noted: previous literature; ref PMID: 31619465; cited from earlier work.
For assay [2], the system named is SV2A. The assay can be described thus: Affinity of PSL for the orthosteric site compared with LEV and BRV (author response). Type of assay: binding. To be noted: PSL vs LEV. From the text: - Does PSL modulate the binding of LEV or BRV to SV2A? Based on the ﬁndings of the present study, such experiments need to be included.
We appreciate this comment. It is not feasible to evaluate the modulatory eƯect of PSL on the binding of LEV or BRV, because PSL also binds to the orthosteric site, with much higher aƯinity than LEV (>1000-fold) or BRV (~100-fold), and directly competes with and readily displaces them (see Fig. below, for LEV , and PMID:
31619465 for BRV). This competitive eƯect of PSL on LEV and BRV has also been described in the literature (PMID: 31619465). We have discussed this limitation in the revised manuscript.
- SV2s belong to the SLC22 family. Is the allosteric binding site conserved in some of these proteins like for […]
Among the four key residues in the allosteric site (F188, Y461, S601, and L655), F188 and Y461 are conserved in OCT1 and OCT2; S601 is not conserved, and L655 is replaced by an alanine in OCT1 and OCT2 (Fig. below).
- Because no information is provided, I guess that the allosteric binding site of SV2A is not conserved in all MFS transporters. Therefore, the title is misleading and should be changed.
As described above, some of the key residues at this site are conserved in OCTs. However, it is unlikely that any single site, orthosteric or allosteric, is conserved across the entire MFS transporter family, and we fully […]

Assay [3] concerns SV2A. Details: method as in PMID: 31619465. To be noted: PSL vs BRV; ref PMID: 31619465; cited from earlier work.
The test system of assay [4] is SV2A WT and L655Q. The assay can be described thus: 3H-padsevonil saturation binding, WT and L655Q (Supplementary Fig. 7D). The conditions noted are these: L655Q vs WT. Further details: species or system human. As for the experimental part:
as §1
An equal volume of dimethyl sulfoxide (DMSO) was added to control reactions. Reactions were arrested after 2 h by trapping the membranes on a Unifilter-GF/C 96-well filter plate pre-soaked with 0.1%(w/v) polyethyleneimine. […] Radioactivity was monitored in MicroBeta2 plate counter. […]

T1 sequence (Q7L0J3 whole entry): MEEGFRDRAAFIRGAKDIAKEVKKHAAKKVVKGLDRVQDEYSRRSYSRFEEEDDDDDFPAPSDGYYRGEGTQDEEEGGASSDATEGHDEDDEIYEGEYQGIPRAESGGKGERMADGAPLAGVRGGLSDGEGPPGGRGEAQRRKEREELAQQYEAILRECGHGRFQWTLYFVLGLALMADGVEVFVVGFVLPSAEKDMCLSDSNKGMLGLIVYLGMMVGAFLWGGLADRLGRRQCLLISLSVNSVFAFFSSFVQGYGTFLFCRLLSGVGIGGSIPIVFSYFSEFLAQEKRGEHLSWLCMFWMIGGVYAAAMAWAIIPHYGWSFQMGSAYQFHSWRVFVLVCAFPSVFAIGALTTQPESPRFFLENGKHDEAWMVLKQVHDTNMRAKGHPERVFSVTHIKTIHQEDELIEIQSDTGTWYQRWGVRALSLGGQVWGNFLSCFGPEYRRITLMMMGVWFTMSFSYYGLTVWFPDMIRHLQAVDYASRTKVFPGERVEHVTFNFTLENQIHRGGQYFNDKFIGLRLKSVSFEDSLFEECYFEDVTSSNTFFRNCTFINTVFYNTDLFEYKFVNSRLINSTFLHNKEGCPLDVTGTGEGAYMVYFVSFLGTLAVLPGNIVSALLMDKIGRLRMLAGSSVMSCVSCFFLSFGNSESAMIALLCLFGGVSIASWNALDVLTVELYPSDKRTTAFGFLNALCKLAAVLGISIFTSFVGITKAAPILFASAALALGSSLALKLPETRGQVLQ
T2 sequence (Q7L0J3 141-742): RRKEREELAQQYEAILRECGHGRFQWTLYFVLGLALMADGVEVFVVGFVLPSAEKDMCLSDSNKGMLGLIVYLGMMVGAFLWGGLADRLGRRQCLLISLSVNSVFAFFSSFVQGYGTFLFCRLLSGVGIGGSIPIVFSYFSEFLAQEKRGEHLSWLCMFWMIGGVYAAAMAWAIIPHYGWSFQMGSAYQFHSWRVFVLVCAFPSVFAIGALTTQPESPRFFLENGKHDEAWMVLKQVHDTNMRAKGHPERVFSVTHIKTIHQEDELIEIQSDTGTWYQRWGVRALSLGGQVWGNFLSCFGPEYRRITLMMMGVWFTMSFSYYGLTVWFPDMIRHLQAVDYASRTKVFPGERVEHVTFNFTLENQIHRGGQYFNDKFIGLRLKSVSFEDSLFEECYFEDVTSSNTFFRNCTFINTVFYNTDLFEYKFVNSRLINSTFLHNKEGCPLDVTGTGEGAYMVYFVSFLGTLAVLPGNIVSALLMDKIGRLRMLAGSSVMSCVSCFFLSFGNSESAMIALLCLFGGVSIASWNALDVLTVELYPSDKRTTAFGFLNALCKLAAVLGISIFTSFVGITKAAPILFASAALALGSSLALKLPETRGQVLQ

For `Cc1cnccc1CN1C[C@@H](c2cc(F)c(F)c(F)c2)CC1=O` [UCB-J], the “Binding of 3H-UCB-J (%)” value on SV2AWT (Log [1H-UCB-J] (M) -5.000) was 0.68% and -0.10%; on SV2AWT (Log [1H-UCB-J] (M) -6.000) it was 0.71% and -0.36% and 1.84% and 0.28% and 0.81% and 0.45%; at SV2AWT (Log [1H-UCB-J] (M) -6.523), 1.22% and 0.52% and -0.33% and 0.54% and 1.39% and 0.90%; on SV2AWT (Log [1H-UCB-J] (M) -7.523) it was 12.02% and 10.25% and 9.91% and 8.99% and 8.62% and 8.05%; on SV2AWT (Log [1H-UCB-J] (M) -8.000), 31.03% and 29.35% and 27.21% and 30.71% and 28.47% and 28.55%; on SV2AWT (Log [1H-UCB-J] (M) -8.523), 65.52% and 65.94% and 58.12% and 42.68% and 40.88% and 45.33%. Besides, the “Binding of 3H-UCB-J (%)” value at SV2AWT (Log [1H-UCB-J] (M) -9.000) is 87.65% and 87.60% and 75.33% and 94.15% and 69.01% and 65.28%; on SV2AWT (Log [1H-UCB-J] (M) -9.523) it was 75.61% and 87.06% and 81.72% and 100.70% and 107.65% and 91.65%; at SV2AWT (Log [1H-UCB-J] (M) -10.000), 99.86% and 95.05% and 102.73% and 88.69% and 93.37% and 102.84%; at SV2AWT (Log [1H-UCB-J] (M) -11.000), 103.52% and 102.05% and 94.43% and 83.50% and 83.58% and 84.45%; at SV2AEM (Log [1H-UCB-J] (M) -6.523), 2.78% and -1.47% and -5.78% and -0.31% and 4.06% and 1.75%; at SV2AEM (Log [1H-UCB-J] (M) -7.523), 15.59% and 10.62% and 12.56% and 12.68% and 13.47% and 20.94%. In addition, the “Binding of 3H-UCB-J (%)” value on SV2AEM (Log [1H-UCB-J] (M) -8.000) was 31.93% and 22.52% and 28.83% and 28.77% and 31.87% and 32.29%; at SV2AEM (Log [1H-UCB-J] (M) -8.523), 75.64% and 50.69% and 48.99% and 56.15% and 58.52% and 59.86%; at SV2AEM (Log [1H-UCB-J] (M) -9.000), 73.21% and 53.48% and 72.67% and 79.47% and 76.43% and 84.63%; at SV2AEM (Log [1H-UCB-J] (M) -10.000) it was 81.17% and 90.15%; at SV2AEM (Log [1H-UCB-J] (M) -11.000), 103.75% and 70.18% and 88.51% and 77.34% and 86.03% and 113.17%; on SV2AEM (Log [1H-UCB-J] (M) -12.000), 116.50% and 86.88% and 109.04% and 74.97% and 104.60% and 108.00%. Also, the “IC50 fold lower than that of levetiracetam” value on SV2AEM (UCB-J vs levetiracetam) amounted to 1000 fold. Further, the “binding response of SV2AEM vs wild-type SV2A” value at SV2AEM was “comparable to those of wild-type SV2A”. Further, the IC50 on SV2AEM (radioligand displacement, 10 nM 3H-UCB-J, padsevonil sentence prints SV2A (Fig. 1)) was 4.1 ± 0.4 nM.
`COCc1nn2c(CN3C[C@@H](CC(F)(F)Cl)CC3=O)c(C(F)(F)F)nc2s1` [padsevonil]: the “Binding of 3H-UCB-J (%)” value at SV2AWT (Log [Padsevonil] (M) -5.523) was 0.15% and -0.08% and -0.07% and 0.0758% and -0.0562%; on SV2AWT (Log [Padsevonil] (M) -6.000) it was 0.06% and 0.26% and 0.47% and 0.68% and 0.17% and 0.52%; on SV2AWT (Log [Padsevonil] (M) -6.523), -0.0333% and 0.63% and 1.13% and 0.79% and 1.06%; on SV2AWT (Log [Padsevonil] (M) -7.000), 0.99% and 1.18% and 1.52% and 1.41% and 1.96% and 1.26%; at SV2AWT (Log [Padsevonil] (M) -7.523), 11.48% and 11.90% and 12.69% and 11.26% and 10.29% and 8.18%; on SV2AWT (Log [Padsevonil] (M) -8.000) it was 53.01% and 65.10% and 62.58% and 68.15% and 66.28% and 57.17%. Moreover, the “Binding of 3H-UCB-J (%)” value at SV2AWT (Log [Padsevonil] (M) -8.523) was 80.92% and 83.61% and 90.83% and 87.28% and 90.55% and 93.06%; on SV2AWT (Log [Padsevonil] (M) -9.000), 70.83% and 92.57% and 94.89% and 80.96% and 85.33% and 98.78%; on SV2AWT (Log [Padsevonil] (M) -9.523), 81.14% and 79.95% and 92.20% and 92.92% and 81.04% and 90.08%; on SV2AWT (Log [Padsevonil] (M) -10.000) it was 105.07% and 88.23% and 106.70% and 105.83% and 107.31% and 86.86%; on SV2AEM (Log [Padsevonil] (M) -5.000), 3.25% and 0.52% and -0.52% and -1.49% and 2.74% and 1.94%; on SV2AEM (Log [Padsevonil] (M) -6.000), 0.40% and 1.18% and 0.39% and -2.99% and 2.99% and -0.40%. Also, the “Binding of 3H-UCB-J (%)” value on SV2AEM (Log [Padsevonil] (M) -6.523) is 3.53% and 6.77% and 1.25% and 5.54% and 6.72% and 2.16%; at SV2AEM (Log [Padsevonil] (M) -8.000), 61.56% and 69.84% and 60.36% and 64.16% and 85.63% and 52.51%; on SV2AEM (Log [Padsevonil] (M) -8.523), 98.63% and 86.36% and 64.73% and 84.51% and 93.84% and 76.42%; on SV2AEM (Log [Padsevonil] (M) -9.000), 99.89% and 102.95% and 84.66% and 80.15% and 101.99% and 100.11%; on SV2AEM (Log [Padsevonil] (M) -10.000) it was 102.45% and 91.95% and 108.05% and 96.45% and 103.55% and 82.92%. Also, the Hill coefficient in the assay on SV2A WT and L655Q [1] is approximately 1. Moreover, the “orthosteric site affinity higher than LEV” value with SV2A [2] is given as more than 1000 fold. In the assay on SV2A [3], the “orthosteric site affinity higher than BRV” value was ~ 100 fold. At SV2AEM, the “binding response of SV2AEM vs wild-type SV2A” value is “comparable to those of wild-type SV2A”. In addition, in the assay on SV2A WT and L655Q [4], the “padsevonil binding in L655Q mutant compared to wild-type” value is “not able to detect a substantial difference”.
